Experimental data: patent US11274097B2, “2-(het)aryl-substituted condensed bicyclic heterocycle derivatives as pest control agents” (BAYER CROPSCIENCE AKTIENGESELLSCHAFT, priority 2014, dated 2022)

Legend:
Assay type in all cases: in vivo
Ctenocephalides felis = Ctenocephalides felis in vitro contact test; conditions: application rate 5 μg/cm^2; adult cat fleas; after 48 h
Protocol: Ctenocephalides felis—In Vitro Contact Test
For the coating of the test tubes, 9 mg of active ingredient are first dissolved in 1 ml of acetone p.a. and then diluted to the desired concentration with acetone p.a. 250 μl of the solution are distributed homogeneously on the inner walls and base of a 25 ml test tube by turning and rocking on an orbital shaker (rocking rotation at 30 rpm for 2 h). With 900 ppm active ingredient solution and internal surface 44.7 cm^2, given homogeneous distribution, an area-based dose of 5 μg/cm^2 is achieved.
After the solvent has evaporated off, the tubes are populated with 5-10 adult cat fleas (Ctenocephalides felis), sealed with a perforated plastic lid and incubated in a horizontal position at room temperature and ambient humidity. After 48 h, efficacy is determined. To this end, the test tubes are stood upright and the fleas are knocked to the base of the tube. Fleas which remain motionless at the base or move in an uncoordinated manner are considered to be dead or moribund.
100% efficacy means that all the fleas were dead or moribund. 0% efficacy means that no fleas were harmed.

Myzus persicae [1] = assay: Myzus persicae translaminar test (MYZUPE t); conditions: 14 dat
Protocol: Myzus persicae—Translaminar Test (MYZUPE t)
(§1) Solvent: 7 parts by weight of dimethylformamide
(§2) Emulsifier: alkylaryl poly glycol ether
(§3) To produce an appropriate active ingredient formulation, 1 part by weight of active ingredient is dissolved using the stated parts by weight of solvent and made up with water containing an emulsifier concentration of 1000 ppm until the desired concentration is attained. To produce further test concentrations, the preparation is diluted with emulsifier-containing water. In the event that addition of ammonium salts or/and penetrants (rapeseed oil methyl ester) is required, these are each pipetted in a concentration of 1000 ppm after the finished formulation solution has been diluted.
One-leaved bell pepper plants (Capsicum annuum) heavily infested by the green peach aphid (Myzus persicae) are treated by spraying the top side of the leaf with the active ingredient formulation in the desired concentration.
(§4) After the desired time, the kill in % is determined. 100% means that all the aphids have been killed and 0% means that none of the aphids have been killed.

Lucilia cuprina = Lucilia cuprina test (LUCICU); conditions: application rate 100 ppm; L1 larvae; after 2 days
Protocol: Lucilia cuprina Test (LUCICU) Solvent: dimethyl sulphoxide To produce an appropriate active ingredient formulation, 10 mg of active ingredient are mixed with 0.5 ml of dimethyl sulphoxide, and the concentrate is diluted with water to the desired concentration. About 20 L1 larvae of the Australian sheep blowfly (Lucilia cuprina) are transferred into a test vessel containing minced horsemeat and the active ingredient preparation of the desired concentration. After 2 days, the kill in % is determined. 100% means that all the larvae have been killed; 0% means that none of the larvae have been killed.

Myzus persicae [2] = assay: Myzus persicae contact test (MYZUPE c); conditions: 2.4 g/ha, 14 dat
Protocol: Myzus persicae—Contact Test (MYZUPE c)
as §1, §2, §3
One-leaved bell pepper plants (Capsicum annuum) heavily infested by the green peach aphid (Myzus persicae) are treated by spraying the underside of the leaf with the active ingredient formulation in the desired concentration.
as §4

Musca domestica = Musca domestica test (MUSCDO); conditions: application rate 20 ppm; adult houseflies; after 2 days
Protocol: Musca domestica Test (MUSCDO) Solvent: dimethyl sulphoxide To produce an appropriate active ingredient formulation, 10 mg of active ingredient are mixed with 0.5 ml of dimethyl sulphoxide, and the concentrate is diluted with water to the desired concentration. Vessels containing a sponge treated with sugar solution and the active ingredient formulation of the desired concentration are populated with 10 adult houseflies (Musca domestica). After 2 days, the kill in % is determined. 100% means that all of the flies have been killed; 0% means that none of the flies have been killed.

Phaedon cochleariae = Phaedon cochleariae spray test (PHAECO); conditions: application rate 500 g/ha; larvae; after 7 days
Outline: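 Chinese cabbage leaf discs sprayed with compound in acetone/dimethylformamide with alkylaryl polyglycol ether emulsifier in water, dried, then infested with mustard beetle larvae. Efficacy scored after 7 days as % larvae killed (100% = all dead, 0% = none).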

Spodoptera frugiperda = Spodoptera frugiperda spray test (SPODFR); conditions: application rate 500 g/ha; maize leaf discs; after 7 days
Protocol: Spodoptera frugiperda—Spray Test (SPODFR)
Solvent: 78.0 parts by weight of acetone • • 1.5 parts by weight of dimethylformamide
(§5) Emulsifier: alkylaryl polyglycol ether
To produce an appropriate active ingredient formulation, 1 part by weight of active ingredient is dissolved using the stated parts by weight of solvent and made up with water containing an emulsifier concentration of 1000 ppm until the desired concentration is attained. To produce further test concentrations, the preparation is diluted with emulsifier-containing water.
Leaf discs of maize (Zea mays) are sprayed with an active ingredient formulation of the desired concentration and, after drying, populated with caterpillars of the armyworm (Spodoptera frugiperda).
After 7 days, the efficacy in % is determined. 100% means that all the caterpillars have been killed; 0% means that no caterpillars have been killed.

Myzus persicae [3] = assay: Myzus persicae spray test (MYZUPE), Chinese cabbage leaf discs; conditions: application rate 500 g/ha, after 6 days
Outline: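 Leaf discs of Chinese cabbage carrying all aphid stages sprayed with compound formulated in acetone/DMF and diluted in water with 1000 ppm alkylaryl polyglycol ether emulsifier. Mortality scored after 6 days as % efficacy (100% = all aphids killed, 0% = none).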

Boophilus microplus = Boophilus microplus injection test (BOOPMI Inj); conditions: application rate 20 μg/animal; injection into engorged adult female cattle ticks; after 7 days
Protocol: Boophilus microplus—Injection Test (BOOPMI Inj)
Solvent: dimethyl sulphoxide
To produce an appropriate active ingredient formulation, 10 mg of active ingredient are mixed with 0.5 ml of solvent and the concentrate is diluted with solvent to the desired concentration.
1 μl of the active ingredient solution is injected into the abdomen of 5 engorged adult female cattle ticks (Boophilus microplus). The animals are transferred into dishes and kept in a climate-controlled room.
Efficacy is assessed after 7 days by laying of fertile eggs. Eggs which are not visibly fertile are stored in a climate-controlled cabinet until the larvae hatch after about 42 days. An efficacy of 100% means that none of the ticks has laid any fertile eggs; 0% means that all the eggs are fertile.

Nilaparvata lugens = Nilaparvata lugens test (NILALU); conditions: 4 ppm
Protocol: Nilaparvata lugens Test (NILALU)
as §1, §5, §3
Rice plants (Oryza sativa, var. Balilla) are treated by spraying with the active ingredient formulation in the desired concentration and then populated with L3 larvae of the brown planthopper (Nilaparvata lugens).
After the desired time, the feeding damage in % is determined. 100% means that no feeding damage is found; 0% means that the feeding damage to the treated plant corresponds to that of the untreated control.

CCS(=O)(=O)c1cc(C(F)(F)F)cnc1-c1nc2cc(C(F)(F)F)ncc2n1C [Example I-21]
efficacy (Ctenocephalides felis): 100% | % efficacy (Myzus persicae [1]; 2.4 g/ha): 90% | % efficacy (Myzus persicae [1]; 12 g/ha): 98% | efficacy (kill) (Lucilia cuprina): 100% | % efficacy (Myzus persicae [2]): 85% | efficacy (kill) (Musca domestica): 95% | efficacy (Phaedon cochleariae): 100% | efficacy (Spodoptera frugiperda): 100% | efficacy (Myzus persicae [3]): 90% | efficacy (laying of fertile eggs) (Boophilus microplus): 80% | % efficacy (Nilaparvata lugens; 21 dat): 90% | % efficacy (Nilaparvata lugens; 28 dat): 100%
